From patent US10702538B2, “Ship inhibition to induce activation of natural killer cells” (THE RESEARCH FOUNDATION FOR THE STATE UNIVERSITY OF NEW YORK, priority 2014, dated 2020)
Entries after “also recorded” stand apart in the source; their conditions may differ.

Legend:
[1] = tested on: immunoregulatory cells (MDSC, nTreg, neutrophils); assay: Preliminary studies: immunoregulatory cells in mice after SHIP inhibitor; type: in vivo, wt C57BL/76 mice
Protocol: K118 was administered in water, and in wt C57BL/76 mice.

[2] = tested on: RMA cells transfected with the NKG2D ligand Rae1; assay: Survival of RMA-Rae1 tumor bearing mice; type: in vivo, C57BL/6 mice; settings: 1×10^5 cells; treated two consecutive days each week; vs the other three groups
Protocol: (§1) FIG. 2: C57BL/6 mice received either RM A cells (3AC RMA and Veh RMA groups) or RMA cells transfected with the NKG2D ligand Rae1 (3AC Rae1 and Veh Rae1 groups) and were treated two consecutive days each week starting twelve hours after receiving the tumor. […] The Kaplan-Meyer survival curve represents two independent, pooled, experiments of RMA-Rae1 tumor bearing mice treated with either vehicle (n=10/experiment) or SHIPi (n=10/experiment) or one experiment of RMA tumor bearing mice treated with either vehicle (n=10/experiment) or SHIPi (n=10/experiment).
(§2) To determine if short term administration of SHIPi could have an in vivo functional effect we injected 5×10^5 RMA cells transected with the NKG2D ligand Rae1 into C57BL/6 mice. RMA is a mouse BL/6 derived T cell lymphoma cell line (raucher virus induced cell leukemia cell line); thus a rejection of a tumor graft in BL/6 mice is due to the presence of the Rae1 ligand or due to SHIPi treatment. Mice were treated with SHIPi (33 mg/kg) for two consecutive days and on the third day peritoneal lavage was performed to recover peritoneal contents. […] Finally, showing that there is a survival benefit for mice receiving short term SHIPi, C57BL/6 mice were injected with 1×10^5 RMA or RMA cells transected with the NKG2D ligand Rae1 and then were treated two consecutive days with SHIPi or with vehicle control. […]

RMA-Rae1 cells = assay: In vivo rejection of GFP expressing RMA-Rae1 tumor cells, peritoneal lavage and flow cytometry; set-up: species or system C57BL/6 mice; settings: listed as SHIPi
Protocol: FIG. 4A; 5×10^5 GFP expressing RMA-Rae1 cells were injected into C57BL/6 mice. Mice were treated with either SHIPi or vehicle for two days. Peritoneal lavage was performed on the third day and cells collected by lavage were analyzed by flow cytometry. Flow cytometry plots indicated GFP positive cells after removal of dead cells and non-singlets via electronic gating. FIG. 4B: Graph represents poled data from two independent experiments using at least 4 SHIPi treated mice and 4 vehicle treated mice in each experiment.
FIG. 5A: 5×10^5 GFP expressing RMA-Rae1 cells were injected into C57BL/6 once or RAG1^−/− mice. Mice were treated with either SHIPi or vehicle for two days. Peritoneal lavage was performed on the third day and cells collected by lavage were analyzed by flow cytometry. Flow cytometry plots indicated GFP positive cells after removal of dead cells and nom-singlets via electronic gating. FIG. 5B: Graph summarizes data from 5 SHIPi treated C57BL/6 mice, 5 SHIPi treated RAG1^−/− mice, 5 vehicle treated C57BL/6 mice, and 5 vehicle treated RAG1^−/− mice.
To determine if short term administration of SHIPi could have an in vivo functional effect we injected 5×10^5 RMA cells transected with the NKG2D ligand Rae1 into C57BL/6 mice. RMA is a mouse BL/6 derived T cell lymphoma cell line (raucher virus induced cell leukemia cell line); thus a rejection of a tumor graft in BL/6 mice is due to the presence of the Rae1 ligand or due to SHIPi treatment. Mice were treated with SHIPi (33 mg/kg) for two consecutive days and on the third day peritoneal lavage was performed to recover peritoneal contents. […] Finally, showing that there is a survival benefit for mice receiving short term SHIPi, C57BL/6 mice were injected with 1×10^5 RMA or RMA cells transected with the NKG2D ligand Rae1 and then were treated two consecutive days with SHIPi or with vehicle control. This was repeated each week such that mice received treatment or vehicle twice a week with five days rest in between each treatment. Treatment start days were spaced a week apart.

[3] = tested on: peritoneal NK and myeloid cells; assay: Peritoneal cell populations in RMA-Rae1 tumor bearing mice (flow cytometry of lavage); type: in vivo, C57BL/6 mice; settings: after two days of treatment, vs vehicle
Protocol: FIGS. 6A-6D: SHIPi treated mice have increased peritoneal myeloid and NK cells. FIGS. 6A-D: 5×10^5 GFP expressing RMA-Rae1 cells were injected into C57BL/6 mice. Mice were treated for two days with SHIPi or vehicle alone. Peritoneal lavage was performed on the third day. Cells collected by lavage were stained with anti-NK1.1, anti-CD3ε, anti-CD19, anti-CD11b and anti-GR1 antibodies and were analyzed by flow cytometry. All populations were determined after backgating on singlets and viable cells. NK cells are NK1.1^+CD3ε^−CD19^−, T cells are CD3ε^+NK1.1^−CD19^−, B cells are CD19^+NK1.1^−CD3ε^− and myeloid cells are CD11b^+GR1^+. FIG. 6B: Graph represents pooled data from two independent experiments using at least 4 SHIPi treated mice and 4 vehicle treated mice in each experiment.
To determine if short term administration of SHIPi could have an in vivo functional effect we injected 5×10^5 RMA cells transected with the NKG2D ligand Rae1 into C57BL/6 mice. RMA is a mouse BL/6 derived T cell lymphoma cell line (raucher virus induced cell leukemia cell line); thus a rejection of a tumor graft in BL/6 mice is due to the presence of the Rae1 ligand or due to SHIPi treatment. Mice were treated with SHIPi (33 mg/kg) for two consecutive days and on the third day peritoneal lavage was performed to recover peritoneal contents. […]

RMA cells = assay: Survival of RMA tumor bearing mice; type: in vivo, C57BL/6 mice; settings: 1×10^5 cells; treated two consecutive days each week; vs vehicle treated groups
Protocol: as §1, §2

NK cells = assay: IFNγ production assay: ex vivo stimulation of NK cells from SHIPi treated mice; type: in vivo; settings: vs vehicle treated mice; for IFNγ production by NK cells following ex vivo stimulation with anti-NK1.1, anti-NKp46 or anti-NKG2D antibody: mice treated daily 33 mg/kg for two days, 33 mg/kg
Protocol: IFNγ production assay methods: Mice were treated daily with SHIPi (33 mg/kg) for two days. Mice were sacrificed by CO2 toxicity on the third day. Splenocytes were harvested and incubated for four-five hours in six well plates in the presence of Golgiplug (BD) either alone, in plates coated with either anti-NK1.1 (PK136), anti-NKp46 (2PA1.4) or anti-NKG2D (A10) antibody or in uncoated plates but with PMA ([…]) and ionomycin as a positive control. After incubation splenocytes were removed from the plates, Fc Receptors were blocked (2.4G2) and cells were stained with the Invitrogen Aqua Live/Dead cell exclusion dye. NK cells were identified by staining for either NK1.1 (PK136) or NKp46 (29A1.4) and […] (145-2C11). T cells were excluded. Cells were fixed and permeabilized (BD Cytofx/Cytoperm kit), intracellular Fc receptors were blocked (2.4G2) and stained for IFNγ (XMG1.2). Samples were run on a BD Fortessa flow cytometer and analyzed using FloJo software.

SHIP1 = target: T1, SHIP1 (Homo sapiens, UniProt Q92835); assay: SHIP1 inhibitor activity; type: biochemical; settings: compared with 3AC
T1 sequence (Q92835 1-1189): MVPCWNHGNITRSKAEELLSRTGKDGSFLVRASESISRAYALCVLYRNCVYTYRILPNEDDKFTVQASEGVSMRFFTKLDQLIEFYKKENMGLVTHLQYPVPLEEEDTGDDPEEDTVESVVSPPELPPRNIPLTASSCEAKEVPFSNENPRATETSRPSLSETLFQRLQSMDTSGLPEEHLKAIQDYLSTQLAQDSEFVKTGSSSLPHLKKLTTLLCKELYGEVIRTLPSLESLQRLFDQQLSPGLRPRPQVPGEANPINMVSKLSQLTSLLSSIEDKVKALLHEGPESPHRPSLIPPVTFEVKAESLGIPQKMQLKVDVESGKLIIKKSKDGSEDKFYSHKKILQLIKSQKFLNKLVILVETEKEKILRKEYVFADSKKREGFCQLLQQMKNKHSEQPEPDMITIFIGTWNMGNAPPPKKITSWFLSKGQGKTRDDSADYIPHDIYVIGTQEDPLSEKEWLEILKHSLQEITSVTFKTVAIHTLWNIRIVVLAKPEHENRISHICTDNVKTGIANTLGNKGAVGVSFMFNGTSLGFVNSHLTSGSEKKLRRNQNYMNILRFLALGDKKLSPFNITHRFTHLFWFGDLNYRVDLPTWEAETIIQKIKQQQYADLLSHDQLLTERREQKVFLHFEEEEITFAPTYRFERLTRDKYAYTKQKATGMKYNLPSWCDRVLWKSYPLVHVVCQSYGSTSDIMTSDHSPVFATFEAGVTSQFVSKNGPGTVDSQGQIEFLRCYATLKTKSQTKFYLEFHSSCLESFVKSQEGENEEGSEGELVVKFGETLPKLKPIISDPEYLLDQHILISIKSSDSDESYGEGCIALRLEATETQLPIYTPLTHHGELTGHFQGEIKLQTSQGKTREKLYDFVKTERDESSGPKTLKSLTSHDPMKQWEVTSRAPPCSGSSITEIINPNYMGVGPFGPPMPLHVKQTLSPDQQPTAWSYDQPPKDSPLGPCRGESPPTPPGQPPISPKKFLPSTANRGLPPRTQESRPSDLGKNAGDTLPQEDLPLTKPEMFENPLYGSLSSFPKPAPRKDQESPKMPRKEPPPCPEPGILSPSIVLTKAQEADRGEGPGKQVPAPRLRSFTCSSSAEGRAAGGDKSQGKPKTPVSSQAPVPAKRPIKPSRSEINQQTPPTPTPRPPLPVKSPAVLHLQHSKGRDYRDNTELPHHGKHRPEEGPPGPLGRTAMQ

[4] = spleen, orally at 10 mg/kg in water

Row | Structure (SMILES) | Neutrophil numbers ([1]; intraperitoneal injection) | Survival of RMA-Rae1 tumor bearing mice [2] | Tumor burden (GFP positive RMA-Rae1 cells in peritoneal lavage) (RMA-Rae1 cells; C57BL/6 mice, 5×10^5 cells, 33 mg/kg two consecutive days, lavage on third day, vs vehicle, 33 mg/kg) | Protection against RMA-Rae1 tumor in mice lacking B and T cells (RMA-Rae1 cells; RAG1−/− mice (printed RAKG−/−), two days treatment) | Protection against RMA-Rae1 tumor after in vivo depletion of NK cells (RMA-Rae1 cells; pretreated with anti-NK1.1 antibody PK136 200 ug 24 hours before tumor injection, vs isotype control antibody) | Peritoneal myeloid cells (CD11b+GR1+) [3] | Numbers of NK cells in the peritoneal cavity ([3]; listed as SHIPi) | Survival of RMA tumor bearing mice (RMA cells) | IFNγ production by NK cells following ex vivo stimulation with anti-NK1.1, anti-NKp46 or anti-NKG2D antibody (NK cells) | IFNγ production by NK cells following ex vivo stimulation with anti-NK1.1, anti-NKp46 or anti-NKG2D antibody (NK cells; listed as SHIPi) | IFNγ production by NK cells unstimulated or stimulated with PMA and ionomycin (NK cells; mice treated two days) | Frequency of natural T regulatory cells (nTreg, CD4+CD25+FoxP3+) ([1]; mesenteric lymph node (mLN), orally at 10 mg/kg in water) | Neutrophil numbers ([1]; orally at 10 mg/kg in water) | Frequency of myeloid derived suppressor cells (MDSC) expressing Gr1 and Mac1 [1, 4] | Frequency of natural T regulatory cells (nTreg, CD4+CD25+FoxP3+) [1, 4] | Water solubility (Water solubility) | SHIP1 inhibitor activity relative to 3AC (SHIP1)
1 | CC(C)CCC[C@@H](C)[C@H]1CC[C@H]2[C@@H]3CCC4C[C@H](N)CC[C@]4(C)[C@H]3CC[C@]12C (stereo partly drawn) [3AC, 3 α-aminocholestane] | increased neutrophil numbers | significantly increased survival | significantly reduced tumor burden; also recorded: increased tumor rejection | retained protection; also recorded: not due to B or T cells | protection is significantly reduced | increased | significantly increased numbers of NK cells | no significant survival difference | significantly increased IFNγ production; also recorded: significantly increased amounts of IFNγ | significantly increased IFNγ | do not see a significant difference |  |  |  |  |  | 
2 | C[C@@]12CCC[C@H]1[C@@H]1CC[C@H]3C[C@@H](N)CC[C@]3(C)[C@H]1CC2.Cl [K118, 3β-amino-5α-androstane hydrochloride] |  |  |  |  |  |  |  |  |  |  |  | Significant increases | trend for increased neutrophil numbers | significant increase | Significant increases | water-soluble | comparable SHIP1 inhibitor activity
